According to patent US20230046617A1, “METHOD FOR PROMOTING EXPANSION OF HEMATOPOIETIC STEM CELLS AND AGENT FOR USE IN THE METHOD” (FARON PHARMACEUTICALS OY, priority 2020, published 2023):

Columns and labels:
[1] = tested on: human CD45+ cells engraftment in the BM of NBSGW mice; assay: In vivo engraftment of sorted human BM cells in non-irradiated NBSGW mice; conditions: VAP-1+ cells in the transfer pool; inhibitor 10 mg/kg i.p. three times a week for six weeks; cut-off 0.1% human CD45+
Excerpt: Human fresh frozen BM CD34+ cells (LONZA) were thawed and stained with APC conjugated mouse anti-Lineage cocktail, PE-Cy7-conjugated anti-CD34 and FITC-conjugated monoclonal antibodies 1B2, TK8-14, and JG-2 against different epitopes of human VAP-1. For batch cell sorting of VAP-1^+/lo and VAP-1^− cells we used a Sony SH800 cell sorter with class A2 Level II biosafety cabinet using 130 μm microfluidic sorting chips. The NBSGW (immune-deficient, c-Kit-deficient) mice not needing irradiation to accept human cells were used as […]. In the VAP-1^− group 19000 cells and in the VAP-1−+VAP-1^+/lo group 16250 VAP-1^− cells and 2750 VAP-1^+/lo cells were intravenously injected per animal. […] Samples were run on LSR fortessa and the data was analyzed with FlowJo. Percentage of chimerism [% chimerism=(% test donor-derived cells)×100/((% test donor-derived cells+(% competitor-derived cells))] was calculated as described (Ema et al., “Adult mouse hematopoietic stem cells: purification and single-cell assays”, Nat Protoc 2006 1(6), 2979-2987).

[2] = tested on: human BM-derived CD34+ cells; assay: CFU assay of human BM-derived CD34+ cells with replating; format: cell-based; conditions: LJP-1586 0.5 μM
Method: (§1) The progeny of 900 CD38^−CD34^+ cells collected from 15-day-old in vitro cultures, obtained as described above, were grown in methylcellulose-based medium (H4436, STEMCELL Technologies) containing or lacking LJP-1586. After 14 days, single, multilineage, and mixed colonies were visually scored by microscopy. Cryopreserved human CD34^+ cells from AllCells were thawed, resuspended, and counted according to the manufacturer's protocol. Five hundred thawed human BM CD34^+ cells were cultured in complete methylcellulose-based medium (H4436, STEMCELL Technologies) containning or lacking LJP-1586. The total number of colonies was counted at 14 days after plating. Replating was performed twice by harvesting and dissociating cells under sterile conditions.

[3] = tested on: human umbilical CB-derived HSCs (CD34+CD38-); assay: Liquid culture expansion of umbilical cord blood derived HSCs; format: cell-based
Method: For human umbilical CB cells, an antibody-based EasySep kit was used to enrich CD34^+CB cells, which were subsequently stained with anti-CD38 and anti-CD34 antibodies. CD38^−CD34^+ cells were sorted using a FACSAria Ilu instrument (BD Biosciences) and then cultured in StemSpan SFEM medium II (STEMCELL Technologies) containing human stem cell factor (100 ng/ml), FMS-like tyrosine kinase 3 ligand (100 ng/ml), and thrombopoietin (50 ng/ml) (all from Peprotech). Cells were seeded at a density of 1×10^3 per ml. LJP-1586 was added immediately after plating when indicated. Cultures were maintained for 21 days, and half the medium was replaced by that containing the same cytokines and LJP-1586 on days 5, 8, 12, 15, and 18. CD34^+ cells from human umbilical CB were isolated via a two-step procedure using Ficoll-Plaque gradient centrifugation (Amersham Pharmacia Biotech, Uppsala, Sweden) and an EasySep Human Cord Blood CD34 Positive Selection Kit II (STEMCELL Technologies). For batch and single cell sorting of VAP-1^+ and VAP-1^− cells from CB we used a Sony SH800 cell sorter with class A2 Level II biosafety cabinet using 130 μm microfluidic sorting chips. This sorter applies low shear stress on cells allowing better survival during cell culture. CD34^+ cells were also sorted into VAP-1^+ and VAP-1^−HSCs (Lineage-CD34+CD38). From these, 100 VAP-1+ and VAP-1−HSCs were then cultured in StemSpan SFEM medium II (STEMCELL Technologies) containing human stem cell factor (100 ng/ml), FMS-like tyrosine kinase 3 ligand (100 ng/ml), and thrombopoietin (50 ng/ml) (all from Peprotech). LJP-1586 was added immediately after plating at a concentration of 1 μM. Cultures were maintained for 20 days. Fresh medium containing the same cytokines and LJP-1586 was added on days 5, 8, 10, 12, 15 and 18. The cells were analysed on days 10 and 15 for CD38−CD34+CD45RA−CD90+ expression using LSR Fortessa instrument (BD Biosciences). Alternatively, a VAP-1 inhibitor szTU73 was used in CB cultures at concentrations 1, 5 and 10 micromolar.

[4] = tested on: ROS in human CD34+ BM cells (CD38-CD34+ gated); assay: ROS production (oxidative burst) by DHR-123 and flow cytometry; format: cell-based; conditions: 9-day liquid cultures, PMA activation, bone marrow derived HSCs
Method: Human CD34^+BM cells were liquid cultured for nine days in StemSpan SFEM medium II (STEMCELL Technologies) containing human stem cell factor (100 ng/ml), FMS-like tyrosine kinase 3 ligand (100 ng/ml), and thrombopoietin (50 ng/ml) (all from Peprotech) with or without LJP-1586. After nine days, the cells were stained with anti-CD38 and anti-CD34 antibodies, washed using DMEM, centrifuged and resuspended in 100 μl DMEM. Then, ROS were detected by DHR-123 reagent (Molecular Probes). For this, DHR-123 was diluted in DMSO and kept as a 5 mM stock solution at −20° C. for single use. […] The cells were then incubated for 10 min at 37° C. and followed by activation with Phorbol 12-myristate 13-acetate (PMA) (Sigma-Aldrich. The stock solution of PMA was frozen at 1 mg/ml in DMSO, freshly thawed and diluted 500 times in order to add 12.5 μl to a final concentration of 200 ng/ml. After 20 min at 37° C., the cells were washed with PBS, resuspended and analyzed by flow cytometry. The red DHR123 turns to green after oxidation. CD38^− and CD34^+ positive cells were gated and fluorescence intensity of oxidized DHR-123 was measured from the filter channel 530 nm/30 nm using LSR Fortessa instrument (BD Biosciences) and analyzed by FlowJo software (Tree Star).

[5] = tested on: CB-derived HSCs; assay: CFU assay of CB-derived cells expanded in liquid culture; format: cell-based, human; conditions: after 15 days liquid culture with LJP-1586 (0.5 μM), then CFU assay with LJP-1586
Method: as §1

## COc1ccc(C/C(=C/F)CN)cc1.Cl [LJP-1586, Z-3-fluoro-2-(4-methoxybenzyl)allylamine hydrochloride]
[1]
  mice that accepted the human BM engraftment: 3/3
[2]; after dissociating and re-plating twice
  number of CFUs higher than control cultures after re-plating: 92%
[2]; first plating, 500 BM CD34+ cells
  number of CFUs higher than control cultures: 33%
[3]; 1 μM, 15 days, average of three donors
  number of primitive HSCs (CD34+CD38-CD45RA-CD90+CD49f+) compared to non-treated cultures: 11 times
[3]; 1 μM, grown for 18 days
  HSC expansion compared to control cells: more than 31 times
[3]; CD34+CD38-CD45RA-CD90+CD49f+
  share of HSCs in gate P-3 that were primitive HSCs: More than 12%
[3]; day 20, 1 μM
  expansion of VAP-1+ HSCs in long term liquid cultures: boosted their expansion
[3]; higher or lower concentrations than 1 μM
  expansion of HSCs at other concentrations: less efficient
[4]
  ROS reduction (MFI) compared to control cells: 62%
[5]
  number of CFUs compared to control cultures: 7.9 times
